Laboratory results: US10953012B2, “Heterocyclic compounds for the inhibition of pask” (BioEnergenix LLC, priority 2011, dated 2021)

Key:
CK2a2 = CK2a2 (Homo sapiens (Human), UniProt P19784); experiment: Biochemical Assay for CK2 Activity; details: 33P-ATP radiochemical assay; read-out: IC50 CK2 a2
Procedure: Biochemical Assay for CK2 Activity
Purified CK2a2 (NP_001887; human full-length protein, GST tagged) from insect cells (final concentration 1.2 nM) is added to freshly prepared Base Reaction Buffer containing 20 mM Hepes (pH 7.5), 10 mM MgCl2, 1 mM EGTA, 0.02% Brij35, 0.02 mg/ml BSA, 0.1 mM Na3VO4, 2 mM DTT, 1% DMSO and CK2 sub [RRRDDDSDDD] (20 μM final). Test compounds in DMSO are then added and the mixture, followed by delivery of ^33P-ATP (specific activity 0.01 μCi/μl final) to initiate the reaction. The kinase reaction is incubated for 120 min at room temperature. The entire reaction mixture is washed through onto a P81 Phosphocellulose paper and washed three times for 10 minutes in 75 mM phosphoric acid and once in methanol prior to drying and scintillation counting.

PASK [1] = target: PASK (Homo sapiens (Human), UniProt Q96RG2); experiment: PAS Kinase FRET Assay; format: biochemical; details: TR-FRET assay; read-out: IC50 Kinase Domain
PASK (Homo sapiens (Human), UniProt Q96RG2), sequence (Q96RG2 999-1251): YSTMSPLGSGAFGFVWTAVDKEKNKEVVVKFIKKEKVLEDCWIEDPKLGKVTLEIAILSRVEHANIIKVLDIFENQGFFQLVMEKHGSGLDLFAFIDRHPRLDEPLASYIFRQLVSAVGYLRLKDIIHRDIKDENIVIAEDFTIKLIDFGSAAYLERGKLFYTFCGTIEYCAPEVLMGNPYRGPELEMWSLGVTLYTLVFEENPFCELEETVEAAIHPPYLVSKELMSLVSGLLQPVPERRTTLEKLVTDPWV
Summary of the method: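 TR-FRET read-out (665/615 nm) of ULight-peptide phosphorylation by PASK, detected with Eu-labelled anti-phospho antibody. Compound, kinase and substrate/ATP reacted 2 h at 25 °C in the dark in 50 mM HEPES, 10 mM MgCl2, 1 mM EGTA, 0.01% Tween-20, 2 mM DTT. Eleven-point dilution series made at 4× final.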

PASK [2] = target: PASK (UniProt #Q96RG2; residues 879-1323) (Homo sapiens (Human), UniProt Q96RG2); experiment: PASK ATP Radiochemical Assay; format: biochemical; details: 33P-ATP radiochemical assay; read-out: IC50 Kinase Domain
PASK (UniProt #Q96RG2; residues 879-1323) (Homo sapiens (Human), UniProt Q96RG2), sequence (Q96RG2 879-1323): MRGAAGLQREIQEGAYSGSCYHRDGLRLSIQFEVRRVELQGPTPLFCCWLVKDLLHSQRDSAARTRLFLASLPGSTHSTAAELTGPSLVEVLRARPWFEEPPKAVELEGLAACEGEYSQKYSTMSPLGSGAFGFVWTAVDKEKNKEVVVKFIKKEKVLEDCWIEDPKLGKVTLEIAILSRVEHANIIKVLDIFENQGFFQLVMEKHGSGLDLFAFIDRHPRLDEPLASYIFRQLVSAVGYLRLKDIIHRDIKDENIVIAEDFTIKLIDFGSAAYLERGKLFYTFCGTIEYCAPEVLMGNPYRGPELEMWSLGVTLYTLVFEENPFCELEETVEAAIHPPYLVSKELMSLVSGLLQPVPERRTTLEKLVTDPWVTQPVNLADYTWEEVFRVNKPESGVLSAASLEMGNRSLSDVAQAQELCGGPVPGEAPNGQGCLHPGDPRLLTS
Procedure: PASK ATP Radiochemical Assay Purified PASK (UniProt #Q96RG2; human recombinant N-terminal GST tagged construct, residues 879-1323) from insect cells (final concentration 5 nM) is added to freshly prepared Base Reaction Buffer containing 20 mM HEPES (pH 7.5), 10 mM MgCl2, 1 mM EGTA, 0.02% Brij35, 0.02 mg/ml BSA, 0.1 mM Na3VO4, 2 mM DTT, 1% DMSO and Myelin Basic Protein (20 μM final). Test compounds in DMSO are then added and the mixture, followed by delivery of ^33P-ATP (specific activity 0.01 μCi/μl final) to initiate the reaction. The kinase reaction is incubated for 120 min at room temperature. The entire reaction mixture is washed through onto a P81 Phosphocellulose paper and washed three times for 10 minutes in 75 mM phosphoric acid and once in methanol prior to drying and scintillation counting.

CK2a2, sequence (P19784 whole entry): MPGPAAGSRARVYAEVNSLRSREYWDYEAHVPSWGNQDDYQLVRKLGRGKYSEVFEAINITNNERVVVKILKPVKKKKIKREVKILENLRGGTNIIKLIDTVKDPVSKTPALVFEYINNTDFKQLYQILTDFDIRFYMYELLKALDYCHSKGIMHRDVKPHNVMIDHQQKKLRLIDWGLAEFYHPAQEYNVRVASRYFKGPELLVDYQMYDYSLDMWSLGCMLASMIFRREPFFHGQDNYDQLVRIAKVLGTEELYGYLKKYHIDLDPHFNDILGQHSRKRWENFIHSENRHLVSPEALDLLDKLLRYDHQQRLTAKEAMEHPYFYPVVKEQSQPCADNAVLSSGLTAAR

SMILES | IC50 (CK2a2) [µM] | IC50 (PASK [1]) [µM] | IC50 (PASK [2]) [µM]
COc1ccc(-c2cc(=O)n3ncc(-c4ccc(F)cc4)c3[nH]2)cc1 [Example 53, 3-(4-Fluorophenyl)-5-(4-methoxyphenyl)pyrazolo[1,5-a]pyrimidin-7(4H)-one] | ≤ 10 |  | 
Cc1nn2c(=O)cc(-c3ccc4c(c3)OCCO4)[nH]c2c1-c1ccccc1 [Example 54, 5-(2,3-Dihydrobenzo[b][1,4]dioxin-6-yl)-2-methyl-3-phenylpyrazolo[1,5-a]pyrimidin-7(4H)-one] | ≤ 10 |  | 
Cc1nn2c(=O)cc(-c3ccc4c(c3)CCO4)[nH]c2c1-c1ccccc1 [Example 55, 5-(2,3-Dihydrobenzofuran-5-yl)-2-methyl-3-phenylpyrazolo[1,5-a]pyrimidin-7(4H)-one] | ≤ 10 |  | 
COc1ccc(-c2cc(=O)n3ncc(-c4ccccn4)c3[nH]2)cc1 [Example 56, 5-(4-Methoxyphenyl)-3-(pyridin-2-yl)pyrazolo[1,5-a]pyrimidin-7(4H)-one] | ≤ 10 |  | 
Cc1nn2c(=O)cc(-c3ccccc3)[nH]c2c1Cc1ccc(Cl)cc1 [Example 61] | ≤ 10 |  | 
Cc1nn2c(=O)cc(-c3ccc(OC(C)C)cc3)[nH]c2c1Cc1ccc(Cl)cc1 [Example 63, 3-(4-Chlorobenzyl)-5-(4-isopropoxyphenyl)-2-methylpyrazolo[1,5-a]pyrimidin-7(4H)-one] | ≥ 10 |  | 
COc1cccc(-c2cc(=O)n3nc(C)c(Cc4ccc(Cl)cc4)c3[nH]2)c1 [Example 64, 3-(4-Chlorobenzyl)-5-(3-methoxyphenyl)-2-methylpyrazolo[1,5-a]pyrimidin-7(4H)-one] | ≥ 10 |  | 
COC(=O)c1ccc(-c2cc(=O)n3nc(C)c(Cc4ccc(Cl)cc4)c3[nH]2)cc1 [Example 65, Methyl 4-(3-(4-chlorobenzyl)-2-methyl-7-oxo-4,7-dihydropyrazolo[1,5-a]pyrimidin-5-yl)benzoate] | ≥ 10 |  | 
Cc1nn2c(=O)cc(-c3ccc(C(N)=O)cc3)[nH]c2c1Cc1ccc(Cl)cc1 [Example 66, 4-(3-(4-Chlorobenzyl)-2-methyl-7-oxo-4,7-dihydropyrazolo[1,5-a]pyrimidin-5-yl)benzamide] | ≥ 10 |  | 
Cc1nn2c(=O)cc(-c3ccc(C(F)(F)F)cc3)[nH]c2c1Cc1ccc(Cl)cc1 [Example 67, 3-(4-Chlorobenzyl)-2-methyl-5-(4-(trifluoromethyl)phenyl)pyrazolo[1,5-a]pyrimidin-7(4H)-one] | ≥ 10 |  | 
COc1ccc(-c2cc(=O)n3nc(C)c(Cc4ccccc4)c3[nH]2)cc1OC [Example 68, 3-Benzyl-5-(3,4-dimethoxyphenyl)-2-methylpyrazolo[1,5-a]pyrimidin-7(4H)-one] | ≥ 10 |  | 
COc1ccc(-c2cc(=O)n3nc(C)c(Cc4ccc(Cl)cc4)c3[nH]2)cc1OC [Example 69, 3-(4-Chlorobenzyl)-5-(3,4-dimethoxyphenyl)-2-methylpyrazolo[1,5-a]pyrimidin-7(4H)-one] | ≥ 10 |  | 
COc1ccc(-c2cc(=O)n3nc(C)c(Cc4ccccc4Cl)c3[nH]2)cc1 [Example 70, 3-(2-Chlorobenzyl)-5-(4-methoxyphenyl)-2-methylpyrazolo[1,5-a]pyrimidin-7-(4H)-one] | ≥ 10 | ≤ 10 | 
CCCc1c(C)nn2c(=O)cc(-c3ccc(OC)cc3)[nH]c12 [Example 71, 5-(4-Methoxyphenyl)-2-methyl-3-propylpyrazolo[1,5-a]pyrimidin-7(4H)-one] | ≥ 10 | ≤ 10 | ≤ 10
COc1ccc(-c2cc(=O)n3ncc(-c4cccnc4)c3[nH]2)cc1 [Example 72, 5-(4-Methoxyphenyl)-3-(pyridin-3-yl)pyrazolo[1,5-a]pyrimidin-7(4H)-one] | ≤ 10 | ≤ 10 | ≤ 10
Cc1nn2c(=O)cc(-c3ccc4ncccc4c3)[nH]c2c1Cc1ccccc1 [Example 73, 3-Benzyl-2-methyl-5-(quinolin-6-yl)pyrazolo[1,5-a]pyrimidin-7(4H)-one] | ≤ 10 | ≤ 10 | ≤ 10

SMILES | IC50 (CK2a2) [µM] | IC50 (PASK [1]) [µM] | IC50 (PASK [2]) [µM]
Cc1nn2c(=O)cc(-c3ccc4c(c3)OCO4)[nH]c2c1Cc1cccc(Cl)c1 [Example 75, 3-(3-Chlorobenzyl)-5-(benzo[d][1,3]dioxol-5-yl)-2-methylpyrazolo[1,5-a]pyrimidin-7(4H)-one] | ≤ 10 | ≤ 10 | ≤ 10
Cc1nn2c(=O)cc(-c3ccc4c(c3)OCO4)[nH]c2c1Cc1ccc(Cl)cc1 [Example 76, 3-(4-Chlorobenzyl)-5-(benzo[d][1,3]dioxol-5-yl)-2-methylpyrazolo[1,5-a]pyrimidin-7(4H)-one] | ≤ 10 | ≤ 10 | ≤ 10
Cc1nn2c(=O)cc(-c3cccnc3)[nH]c2c1-c1ccc(F)cc1 [Example 77, 3-(4-Fluorophenyl)-2-methyl-5-(pyridin-3-yl)pyrazolo[1,5-a]pyrimidin-7(4H)-one] | ≤ 10 |  | ≤ 10
O=c1cc(-c2ccccn2)[nH]c2c(-c3ccc(F)cc3)cnn12 [Example 79, 3-(4-Fluorophenyl)-5-(pyridin-2-yl)pyrazolo[1,5-a]pyrimidin-7(4H)-one] | ≤ 10 |  | ≤ 10
Cc1nn2c(=O)cc(-c3ccc4c(c3)OCCO4)[nH]c2c1-c1ccc(F)cc1 [Example 81, 5-(2,3-Dihydrobenzo[b][1,4]dioxin-6-yl)-3-(4-fluorophenyl)-2-methylpyrazolo[1,5-a]pyrimidin-7(4H)-one] | ≤ 10 | ≤ 10 | ≤ 10
O=c1cc(-c2ccc3c(c2)OCCO3)[nH]c2c(-c3ccc(N4CCCCC4)nc3)cnn12 [Example 89, 5-(2,3-Dihydrobenzo[b][1,4]dioxin-6-yl)-3-(6-(piperidin-1-yl)pyridin-3-yl)pyrazolo[1,5-a]pyrimidin-7(4H)-one] | ≤ 10 | ≤ 10 | 
O=c1cc(-c2ccc3c(c2)OCCO3)[nH]c2c(-c3cccc(F)c3)cnn12 [Example 91, 5-(2,3-Dihydrobenzo[b][1,4]dioxin-6-yl)-3-(3-fluorophenyl)pyrazolo[1,5-a]pyrimidin-7(4H)-one] | ≤ 10 | ≤ 10 | 
O=c1cc(-c2cc3ccccc3o2)[nH]c2c(-c3ccccn3)cnn12 [Example 93, 5-(Benzofuran-2-yl)-3-(pyridin-2-yl)pyrazolo[1,5-a]pyrimidin-7(4H)-one] |  | ≤ 10 | ≤ 10
O=c1cc(-c2ccc3cc[nH]c3c2)[nH]c2c(-c3ccccc3)cnn12 [Example 95, 5-(1H-Indol-6-yl)-3-phenylpyrazolo[1,5-a]pyrimidin-7(4H)-one] | ≤ 10 |  | ≤ 10
O=c1cc(-c2ccc3c(c2)OCCO3)[nH]c2c(-c3cccnc3)c(O)nn12 [Example 101, 5-(2,3-Dihydrobenzo[b][1,4]dioxin-6-yl)-2-hydroxy-3-(pyridin-3-yl)pyrazolo[1,5-a]pyrimidin-7(4H)-one] | ≤ 10 | ≤ 10 | 
O=c1cc(-c2cc3ccccc3o2)[nH]c2c(-c3ccccn3)cnn12 [Example 149, 5-(Benzofuran-2-yl)-3-(pyridin-2-yl)pyrazolo[1,5-a]pyrimidin-7(4H)-one] | ≤ 10 |  | 
CC(C)Oc1c(-c2cc(=O)n3ncc(-c4ccccn4)c3[nH]2)ccc2c1OCO2 [Example 250, 5-(4-Isopropoxybenzo[d][1,3]dioxol-5-yl)-3-(pyridin-2-yl)pyrazolo[1,5-a]pyrimidin-7(4H)-one] |  | ≤ 10 | 
Cc1nn2c(=O)cc(-c3ccc4c(c3OC(C)C)OCO4)[nH]c2c1-c1ccccn1 [Example 251, 5-(4-Isopropoxybenzo[d][1,3]dioxol-5-yl)-2-methyl-3-(pyridin-2-yl)pyrazolo[1,5-a]pyrimidin-7(4H)-one] |  | ≤ 10 | 
CNC(=O)Oc1ccc(-c2cc(=O)n3nc(C)c(-c4ccccn4)c3[nH]2)cc1 [Example 252, 4-(2-Methyl-7-oxo-3-(pyridin-2-yl)-4,7-dihydropyrazolo[1,5-a]pyrimidin-5-yl)phenyl methylcarbamate] |  | ≤ 10 | 
CNC(=O)Oc1ccc(-c2cc(=O)n3ncc(-c4ccccn4)c3[nH]2)cc1 [Example 253, 4-(7-Oxo-3-(pyridin-2-yl)-4,7-dihydropyrazolo[1,5-a]pyrimidin-5-yl)phenyl methylcarbamate] |  | ≤ 10 | 
O=c1cc(-c2ccc(-c3nnco3)cc2)[nH]c2c(-c3ccccn3)cnn12 [Example 255, 5-(4-(1,3,4-Oxadiazol-2-yl)phenyl)-3-(pyridin-2-yl)pyrazolo[1,5-a]pyrimidin-7(4H)-one] |  | ≤ 10 | 
